The results in this text go back to patent publication US20100240754A1, “UNSATURATED FATTY AMINO ACID DERIVATIVES AND USE THEREOF IN DERMAL COSMETOLOGY” (Pierre Fabre Demo-Cosmetique, priority 2007, published 2010).

“Also recorded” adds a separate entry of the source.

Test [1] concerns fibroblast line L929. In words: Test of TBARS: lipid peroxidation after H2O2-Fe2+/Fe3+ stress. The class given is cell-based, murine. As to conditions: for inhibition at 20 pg/mL: Mus musculus, Dose = 0.02 ng/mL, L929, 16 hours pretreatment, H2O2-Fe2+/Fe3+ (200 μM-1 mM) 1 hour, TBARS, read-out: % of protection of membrane lipids, Average; for antiradical activity and protection of cell membranes, in words: L929, TBARS test, conclusion from Table 4. The source says:
In order to evaluate membrane alteration, we have measured lipid peroxidation by an assay in vitro of the complexes between lipid oxidation products and thiobarbituric acid. These complexes are called TBARS (Thiobarbituric Acid Reactive Substances) and give the name to the test: Test of TBARS.
In order to mimic a chemical oxidative stress, we treated a fibroblast line, L929, with a complex composed of hydrogen peroxide (H2O2) and of iron (Fe^2+/Fe^3+) thereby regenerating Fenton's reaction, source of FORs and more particularly of hydroxyl radicals)(OH^0) (D. A. Vessey et al., 1992):
The products were evaluated on the murine fibroblast line L929. The cells were pretreated with the different concentrations of products for 16 hours and were then stimulated with the complex H2O2—Fe^2+/Fe^3+ (200 μM-1 mM) for 1 hour.
Mother solutions: 100 mg/mL, ethanol, 4° C. Final solutions: 0.02 ng/mL.
Peroxidation of membrane lipids is analyzed by measuring the TBARS (Procedure Ref. PL No. 2, according to Morlière et al., 1991).
In an acid medium, at 95° C., complexes noted as TBARS for Thio Barbituric Acid Reactive Substance are formed, between the lipid oxidation products (malonic dialdehyde or MDA) and thiobarbituric acid (TBA) which may be assayed by fluorescence relatively to a standard range with MDA. The dosage of the TBARS is then expressed in pmol/μg of proteins. The proteins and the TBARS are assayed in the intracellular medium.
From the calculation of the TBARS in pmol/μg of proteins, we calculated the protective efficiency of different products against oxidation of membrane lipids.
Seven independent experiments were conducted. During these experiments, various compounds were evaluated (with the test, it is not possible to evaluate more than 10 molecules at the same time). The compounds which were evaluated several times were selected according to the results obtained in the other test also measuring antiradical activity (test for assaying oxygen active species, OASes).

Test [2] deals with production of PG6KF1α. The experiment in a line: Production of prostaglandin 6KF1α by keratinocytes stimulated with calcium ionophore A23187 (ELISA). The test is classed as cell-based. As to conditions: for inhibition at 3 µg/mL: Keratinocyte, read-out: Inhibitory activity % of molecules evaluated on the production of PG6KF1α; for effective dose 45 (DE45), production of PG6KF1α: keratinocytes stimulated with A23187; for anti-inflammatory potentialities (PG6KF1α production), in words: summary of Table 1 data. The procedure:
The prostaglandin PG6KF1 alpha, is one of the major metabolites produced by the stimulated keratinocyte, and representative of the modulation of the production of metabolites of the metabolism of arachidonic acid stemming from the cyclo-oxygenase route.
The suspension of keratinocytes in DMEM with 10% FCS is distributed in plates of 6 wells (1.2 106 cells/well), and incubated for 16 hours at 37° C. in an atmosphere with 5% CO2. The keratinocytes are then rinsed with PBS in order to eliminate non-adherent cells and then exposed to the products to be tested included in DMEM without FCS (which might interfere in the assay).
(§1) The tested culture concentration is 3 μg/mL. It was retained after a preliminary test for evaluating cytotoxicity (neutral red) and it is not cytotoxic.
For each treatment, 3 wells were produced. The cells were pre-incubated for 60 min with the products to be tested and then an agent stimulating the cascade of arachidonic acid, the calcium ionophore, is added for 5 hours: the calcium ionophore A23187 is used at a concentration of 1 μM.
After these 5 hours of culture, the culture media of each of the wells are recovered, centrifuged at 3,000 rpm and stored at −80° C.
The production of prostaglandin 6KF1α for each of the tests is measured with the Elisa kit EUROMEDEX.
The results are gathered in Table 1 and are expressed in percentage of activity/stimulated control.

Test [3] concerns production of IL8. The experiment in a line: Production of interleukin 8 induced in keratinocytes by PMA and calcium ionophore A23187 (ELISA). The test is classed as cell-based. As to conditions: for Inhibitory activity % of molecules evaluated on the production of IL8 / inhibition at 3 µg/mL: 3 μg/mL, keratinocytes, 60 min pre-incubation, PMA 1 μM + A23187 0.1 μM, 6 hours, percentage of activity/stimulated control; for inhibition at 3 µg/mL: Keratinocyte, read-out: Inhibitory activity % of molecules evaluated on the production of IL8; for anti-inflammatory potentialities (IL8 production), in words: summary of Table 2 data. The procedure:
In this study conducted on 96-well plates, we evaluated the activity of amino-alkene acids, on the production of interleukin 8 induced at the keratinocyte by the phorbol ester PMA and the calcium ionophore A23187.
The suspension of keratinocytes in supplemented KSFM is distributed into plates of 96 wells (3.10^4 cells/well), and incubated for 16 hours at 37° C. in an atmosphere with 5% CO2. The keratinocytes are then rinsed with PBS in order to remove the non-adherent cells and then exposed to the products to be tested included in non-supplemented KSFM (which might interfere in the assay).
as §1
For each treatment, 3 wells are produced. The cells are pre-incubated for 60 min with the products to be tested and then stimulated, in parallel with negative controls without any stimulant: Phorbol Myristate Acetate (PMA) 1 μM+calcium Ionophore (A23187) 0.1 μM.
Incubation for 6 hours at 37° C. in a humid air atmosphere containing 5% of CO2.
The culture media of each of the wells are recovered, centrifuged at 3,000 rpm and stored at −80° C.
Assay of the cytokines: IL8 is assayed by an immunoenzymatic method with an ELISA kit (Immunotech).
The results are gathered in Table 2 and are expressed in percentage of activity/stimulated control.
(In an ELISA, binding on a coated surface is turned into a signal by an enzyme label.)

Where [4] appears, read: 3 μg/mL, keratinocytes, 60 min pre-incubation, calcium ionophore A23187 1 μM for 5 hours, percentage of activity/stimulated control.

As for `Cl.NCCC/C=C/C(=O)O` [Compound No. 1, (E)-6-amino-hex-2-enoic acid], in test [1], the inhibition at 20 pg/mL turned out to be 13.4%. Further, the inhibition at 3 µg/mL in test [2] (setting [4]) was under 0%. Besides, the “Inhibitory activity % of molecules evaluated on the production of IL8” value (“Inhibitory activity % … of IL8” for short) in test [3] is reported as “~”.
Take `NCCC/C=C(/F)C(=O)O` [Compound No. 2, (E)-6-amino-2-fluoro-hex-2-enoic acid]: the inhibition at 20 pg/mL in test [1] was 7.63%. Further, the “Inhibitory activity % of molecules evaluated on the production of PG6KF1α” value in test [2] (setting [4]) was “~”. Also, the “Inhibitory activity % … of IL8” value in test [3] is “~”.
In the case of `Cl.NCCCC/C=C/C(=O)O` [Compound No. 4, (E)-7-amino-hept-2-enoic acid], the inhibition at 20 pg/mL in test [1] came to 8.75%. The inhibition at 3 µg/mL in test [2] (setting [4]) worked out at 18%. The “Inhibitory activity % … of IL8” value in test [3] is reported as “~”.
For the compound `NCCCCC=C(F)C(=O)O` [Compound No. 5, (Z+E)-7-amino-2-fluoro-hept-2-enoic acid], in test [1], the “antiradical activity and protection of cell membranes, in words” value (“antiradical activity and protection” for short) is reported as “significant antiradical activity”; the inhibition at 20 pg/mL is 36.3%. In test [2] (setting [4]), the inhibition at 3 µg/mL worked out at 41%. Besides, in test [2], the “effective dose 45 (DE45), production of PG6KF1α” value was found to be 25 µg/mL and the “anti-inflammatory potentialities (PG6KF1α production), in words” value is listed as “anti-inflammatory potentialities”. The inhibition at 3 µg/mL in test [3] was under 0%.
As for `Cl.NCCCCC/C=C/C(=O)O` [Compound No. 7, (E)-8-amino-oct-2-enoic acid], in test [1], the “antiradical activity and protection” value is listed as “significant antiradical activity; also recorded: most significant antiradical activity”; the inhibition at 20 pg/mL was 48.3%. For the same compound, the inhibition at 3 µg/mL in test [2] (setting [4]) is 36%. In addition, the “anti-inflammatory potentialities (PG6KF1α production), in words” value in test [2] was “anti-inflammatory potentialities”. The “Inhibitory activity % … of IL8” value in test [3] was “~”.
Consider `Cl.NCCCCCC/C=C/C(=O)O` [Compound No. 8, (E)-9-amino-non-2-enoic acid], for which, in test [1], the “antiradical activity and protection” value is given as “significant antiradical activity; also recorded: most significant antiradical activity”; the inhibition at 20 pg/mL turned out to be 56.6%. Also, in test [2] (setting [4]), the inhibition at 3 µg/mL came out at 8%. The inhibition at 3 µg/mL in test [3] came out at 14%.
`Cl.NCCCCCCC=C(F)C(=O)O` [Compound No. 9, 9-amino-2-fluoro-non-2-enoic acid]: in test [1], the “antiradical activity and protection” value was “significant antiradical activity”; the inhibition at 20 pg/mL was 27.5%. In addition, in test [2] (setting [4]), the inhibition at 3 µg/mL came to 17%. In test [3], the inhibition at 3 µg/mL is 20% and the “anti-inflammatory potentialities (IL8 production), in words” value is “anti-inflammatory potentialities”.
With `Cl.NCCCCCCCCCCCC=C(F)C(=O)O` [Compound No. 10, 14-amino-2-fluoro-tetradec-2-enoic acid], in test [1], the “antiradical activity and protection” value is listed as “significant antiradical activity”; the inhibition at 20 pg/mL was 23.9%. Moreover, the inhibition at 3 µg/mL in test [2] (setting [4]) came to 38%. The “anti-inflammatory potentialities (PG6KF1α production), in words” value in test [2] is on record as “anti-inflammatory potentialities”. For the same compound, the inhibition at 3 µg/mL in test [3] was 8%.
In the case of `Cl.NCCCCCCCCCCC/C=C/C(=O)O` [Compound No. 11, (E)-14-amino-tetradec-2-enoic acid], the inhibition at 20 pg/mL in test [1] is -26.3%. For the same compound, the inhibition at 3 µg/mL in test [2] (setting [4]) was 40%. Besides, in test [2], the “effective dose 45 (DE45), production of PG6KF1α” value turned out to be 10 µg/mL and the “anti-inflammatory potentialities (PG6KF1α production), in words” value is recorded as “anti-inflammatory potentialities”. Further, in test [3], the inhibition at 3 µg/mL amounted to 22% and the “anti-inflammatory potentialities (IL8 production), in words” value is reported as “anti-inflammatory potentialities”.
Turning to `NCCC/C=C(\F)C(=O)O` [compound 3, (Z)-6-amino-2-fluoro-hex-2-enoic acid], the inhibition at 20 pg/mL in test [1] was -4%. Also, in test [2] (setting [4]), the inhibition at 3 µg/mL was determined as 22%. Also, the “Inhibitory activity % … of IL8” value in test [3] is recorded as “~”.
For `NCCCC/C=C(\F)C(=O)O` [compound 6, (Z)-7-amino-2-fluoro-hept-2-enoic acid], in test [1], the “antiradical activity and protection” value is listed as “significant antiradical activity; also recorded: most significant antiradical activity”; the inhibition at 20 pg/mL came to 49.8%. The inhibition at 3 µg/mL in test [2] (setting [4]) came to 25%. For the same compound, the inhibition at 3 µg/mL in test [3] was under 0%.
